Values quoted from earlier work, collected in patent publication US10456335B2, “Oral hygiene compositions and methods” (Carson Laboratories, I.P., Inc., priority 2008, dated 2019).

Details: eight hour time weighted average

- OSHA permissible exposure limit: 1 ppm
SMILES: OO [hydrogen peroxide]
